# “And” between values parts separate entries of the source, which are not always exact repeats. Equal entries are not always repeated.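 48-hour exposure; five concentrations; linearly interpolated endpoints. GI50: concentration for 50% inhibition of growth. TGI is the concentration that stops growth completely.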
# Assays:
# Assay in all cases: inhibition of tumour cell growth, NCI panel, 48 h
# [1] = tested on: 786-0 renal
# [2] = tested on: A498 renal
# [3] = tested on: A549 NSCLC
# [4] = tested on: CAKI-1 renal
# [5] = tested on: CCRF-CEM leukemia
# [6] = tested on: COLO 205 colon
# [7] = tested on: DLD-1 colon
# [8] = tested on: DMS 114 small cell lung
# [9] = tested on: DMS 273 small cell lung
# [10] = tested on: EKVX NSCLC
# [11] = tested on: HCC-2998 colon
# [12] = tested on: HCT-116 colon
# [13] = tested on: HCT-15 colon
# [14] = tested on: HL-60(TB) leukemia
# [15] = tested on: HOP-62 NSCLC
# [16] = tested on: HOP-92 NSCLC
# [17] = tested on: HT29 colon
# [18] = tested on: IGROV1 ovarian
# [19] = tested on: K-562 leukemia
# [20] = tested on: KM12 colon
# [21] = tested on: KM20L2 colon
# [22] = tested on: LOX IMVI melanoma
# [23] = tested on: LXFL 529 NSCLC
# [24] = tested on: M14 melanoma
# [25] = tested on: M19-MEL melanoma
# [26] = tested on: MALME-3M melanoma
# [27] = tested on: MOLT-4 leukemia
# [28] = tested on: NCI-H226 lung
# [29] = tested on: NCI-H23 lung
# [30] = tested on: NCI-H460 lung
# [31] = tested on: NCI-H522 lung
# [32] = tested on: OVCAR-3 ovarian
# [33] = tested on: OVCAR-4 ovarian
# [34] = tested on: OVCAR-5 ovarian
# [35] = tested on: OVCAR-8 ovarian
# [36] = tested on: RPMI-8226 leukemia
# [37] = tested on: RXF 393 renal
# [38] = tested on: SF-268 CNS
# [39] = tested on: SF-295 CNS
# [40] = tested on: SF-539 CNS
# [41] = tested on: SK-MEL-2 melanoma
# [42] = tested on: SK-MEL-28 melanoma
# [43] = tested on: SK-MEL-5 melanoma
# [44] = tested on: SK-OV-3 ovarian
# [45] = tested on: SN12C renal
# [46] = tested on: SNB-19 CNS
# [47] = tested on: SNB-75 CNS
# [48] = tested on: SNB-78 CNS
# [49] = tested on: SR leukemia
# [50] = tested on: SW-620 colon
# [51] = tested on: TK-10 renal
# [52] = tested on: U251 CNS
# [53] = tested on: UACC-257 melanoma
# [54] = tested on: UACC-62 melanoma
# [55] = tested on: UO-31 renal
# [56] = tested on: XF 498 CNS
smiles,measurement,setting,value
COc1cc(C2c3cc4c(cc3[C@@H](NC3CCN(Cc5ccccc5)CC3)C3COC(=O)[C@H]23)OCO4)cc(OC)c1O (stereo not given in full),GI50,[1],161 nM and 33.3 nM
same,TGI,[1],668 nM and 221 nM
same,TGI,[2],498 nM
same,TGI,[3],178 nM
same,GI50,[4],37.2 nM and 277 nM
same,TGI,[4],694 nM and 2000 nM
same,TGI,[5],232 nM and 120 nM
same,GI50,[6],372 nM and 179 nM
same,TGI,[7],3110 nM and 2260 nM
same,GI50,[8],169 nM and 63.9 nM
same,TGI,[8],1960 nM and 316 nM
same,GI50,[9],114 nM and 21.9 nM
same,TGI,[9],558 nM and 180 nM
same,GI50,[10],369 nM and 783 nM
same,TGI,[10],2430 nM and 3960 nM
same,TGI,[11],1130 nM and 427 nM
same,TGI,[12],2280 nM and 1590 nM
same,TGI,[13],536 nM and 432 nM
same,TGI,[14],200 nM and 54.8 nM
same,TGI,[15],206 nM and 146 nM
same,GI50,[16],143 nM and 26 nM
same,TGI,[16],730 nM and 93.4 nM
same,TGI,[17],1930 nM and 410 nM
same,TGI,[18],3590 nM and 567 nM
same,GI50,[19],266 nM and 122 nM
same,TGI,[19],12800 nM and 2840 nM
same,TGI,[20],2230 nM and 1020 nM
same,TGI,[21],3280 nM and 841 nM
same,GI50,[22],145 nM and 34.9 nM
same,TGI,[22],1180 nM and 231 nM
same,GI50,[23],1100 nM and 438 nM
same,TGI,[23],4400 nM and 2720 nM
same,GI50,[24],180 nM and 48.4 nM
same,TGI,[24],744 nM and 346 nM
same,TGI,[25],2100 nM and 1900 nM
same,GI50,[26],238 nM and 113 nM
same,TGI,[26],1600 nM and 1110 nM
same,GI50,[27],< 10 nM
same,TGI,[27],12.9 nM and 25.8 nM
same,TGI,[28],101 nM and 53.5 nM
same,GI50,[29],126 nM and 40.6 nM
same,TGI,[29],623 nM and 224 nM
same,GI50,[30],< 10 nM
same,TGI,[30],194 nM and 116 nM
same,GI50,[31],82.7 nM
same,TGI,[31],321 nM
same,TGI,[32],1560 nM and 1040 nM
same,GI50,[33],209 nM and 1120 nM
same,TGI,[34],1510 nM
same,TGI,[35],587 nM
same,GI50,[36],151 nM and 54 nM
same,TGI,[36],2820 nM and 465 nM
same,GI50,[37],185 nM and 399 nM
same,TGI,[37],768 nM and 927 nM
same,TGI,[38],1980 nM and 584 nM
same,TGI,[39],498 nM and 752 nM
same,TGI,[40],263 nM and 194 nM
same,GI50,[41],1050 nM and 239 nM
same,TGI,[41],2770 nM and 496 nM
same,TGI,[42],2840 nM and 1570 nM
same,GI50,[43],206 nM and 73.9 nM
same,TGI,[43],1400 nM and 373 nM
same,TGI,[44],445 nM and 503 nM
same,GI50,[45],1850 nM
same,TGI,[45],3890 nM
same,TGI,[46],22400 nM and 2940 nM
same,GI50,[47],32.4 nM and 218 nM
same,TGI,[47],1790 nM and 636 nM
same,GI50,[48],2040 nM and 887 nM
same,TGI,[48],6030 nM and 8240 nM
same,TGI,[49],20 nM
same,GI50,[50],232 nM and 76 nM
same,TGI,[50],2420 nM and 1080 nM
same,GI50,[51],679 nM and 197 nM
same,TGI,[51],2560 nM and 608 nM
same,GI50,[52],115 nM and 26 nM
same,TGI,[52],594 nM and 183 nM
same,GI50,[53],1420 nM and 256 nM
same,TGI,[53],11900 nM and 2120 nM
same,GI50,[54],217 nM and 35.9 nM
same,TGI,[54],1380 nM and 216 nM
same,GI50,[55],214 nM and 87.9 nM
same,TGI,[55],1110 nM and 275 nM
same,GI50,[56],377 nM and 132 nM
same,TGI,[56],2340 nM and 1400 nM
